The values below come from PMC4977564, “Inhibition of Mycobacterium tuberculosis dihydrodipicolinate synthase by alpha-ketopimelic acid and its other structural analogues” (Scientific Reports, 2016).

For one experiment, the system named is Escherichia coli DapA. The settings on record: cited from earlier work; for Ki: competitive inhibitors, structural analogues of pyruvate.
Experiment [1] addresses T1, recombinant Mtb-DapA (Mtb-rDapA) (Mycobacterium tuberculosis, UniProt P9WP25). The settings on record: for Inhibition of Mtb-rDapA (in words): pyruvate 500 μM, ASA 400 μM, up to millimolar concentrations.
In experiment [2] the target is T1, recombinant Mtb-DapA (Mtb-rDapA). The experiment in a line: biochemical. Particulars: for Emax: read-out: Maximal Inhibition (%).
Another experiment deals with Mtb-rDapA (Mycobacterium tuberculosis, UniProt P9WP25). The experiment in a line: Fluorescence-based thermal shift assay. It counts as binding. Particulars: ligand 0.2 mM to 1 mM; Mtb-rDapA Tm 84.8 °C. The text has this:
The fluorescence based thermal shift assay for screening of identified ligands, which is based on the principle that ligand binding alters thermal stability of protein. This method allows us to monitor the protein denaturation upon heating using fluorescence based dye (Sypro orange, Sigma, USA), which binds to hydrophobic part of proteins during protein denaturation and emits fluorescence at 580 nm[43]. We can monitor the changes in fluorescence and generate a thermal melting curve using real time PCR. The mid-point of the melting curve designated as the melting temperature Tm corresponding to 50% of protein being denatured.
The thermal shift assay was carried out in the LightCycler^R LC480 qPCR machine using 384 well PCR plates (Roche, USA). An assay mixture of 20 μl contained 20 μM Mtb-rDapA, 15 X Sypro Orange (Sigma), 50 mM sodium phosphate buffer pH 7.4 and ligand in the range 0.2 mM to 1 mM. The ligands and Mtb-rDapA were diluted in sodium phosphate buffer. The PCR plates were sealed with optical seal, mixed well and centrifuged after the assay mixture was added. […] The fluorescence intensity was measured by excitation at 465 nm and emission at 580 nm. Curve fitting, melting temperature calculation and report generation on the raw Fluorescence based thermal shift assay (FTS) data were performed using pre-installed analysis software provided with the instrument (Roche, USA)[44].

T1 sequence (P9WP25 whole entry, looked up): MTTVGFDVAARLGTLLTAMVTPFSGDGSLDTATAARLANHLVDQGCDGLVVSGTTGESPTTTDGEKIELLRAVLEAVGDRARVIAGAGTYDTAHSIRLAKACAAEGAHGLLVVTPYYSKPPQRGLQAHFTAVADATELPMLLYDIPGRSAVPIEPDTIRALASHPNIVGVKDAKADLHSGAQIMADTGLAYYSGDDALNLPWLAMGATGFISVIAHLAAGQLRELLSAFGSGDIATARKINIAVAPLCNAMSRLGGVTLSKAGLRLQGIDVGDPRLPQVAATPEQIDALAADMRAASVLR
Sequence of Mtb-rDapA (P9WP25 whole entry, looked up): as above

For orientation: Ki means the equilibrium dissociation constant of an inhibitor or competing ligand from its target. Turning to `O=C(O)C(=O)CF` [3-fluoropyruvate], the Ki in the experiment with Escherichia coli DapA is 220 µM.

One may read the Km as the substrate concentration at which the rate is half of its maximum. As for `N[C@@H](CC=O)C(=O)O` [ASA, L-aspartate-beta-semialdehyde], in experiment [1] (read-out: Michaelis constant, Km, substrate of Mtb-rDapA), the Km came to 388 µM.

As usually defined, the IC50 is the concentration at which inhibition is half-maximal. On to `O=C(O)c1cccc(C(=O)O)[n+]1[O-]` [N-oxide of dipicolinic acid], for which the IC50 in the experiment with Escherichia coli DapA was 200 µM.

As to `O=C(O)CCCC(=O)C(=O)O` [compound 2, 2-oxohexanedioic acid], the Emax in experiment [2] stood at 40%.

For `O=C(O)CCC(=O)C(=O)O` [compound 3, 2-oxopentanedioic acid], the Emax in experiment [2] was found to be 15%.

Take `O=C(O)CCCCCC(=O)O` [compound 4, heptanedioic acid]: the Emax in experiment [2] came to 10%.

Turning to `O=C(O)c1ccccc1` [compound 5, Benzoic acid], the “Inhibition of Mtb-rDapA (in words)” value in experiment [1] was “None of these showed inhibition”. The Emax in experiment [2] was found to be 2%.

`Nc1ccc(C(=O)O)cc1` [compound 6, p-amino benzoic acid]: the Emax in experiment [2] stood at 8%.

In the case of `CCCC(=O)CC(=O)OC` [compound 7, Methyl 3-oxohexanoate], in experiment [1], the “Inhibition of Mtb-rDapA (in words)” value was “did not show any inhibition”. In addition, the Emax in experiment [2] was 5%.

For `Nc1ccc(C(=O)O)c(O)c1` [compound 8, 4-amino-2-hydroxy-benzoic acid], the “Inhibition of Mtb-rDapA (in words)” value in experiment [1] was “None of these showed inhibition”. In addition, in experiment [2], the Emax was 4%.

For `O=C(O)COc1ccccc1` [compound 9, 2-phenoxyacetic acid], in experiment [1], the “Inhibition of Mtb-rDapA (in words)” value is reported as “None of these showed inhibition”. In addition, the Emax in experiment [2] was found to be 4%.

`CCCCc1ccc(C(=O)O)nc1` [compound 10, 5-butylpyridine-2-carboxylic acid]: the “Inhibition of Mtb-rDapA (in words)” value in experiment [1] was “None of these showed inhibition”. The Emax in experiment [2] came out at 5%.

As for `O=C(O)CCCCC(O)C(=O)O` (centres unmarked) [compound 11, hydroxyheptanedioic acid], the IC50 in experiment [2] (IC50, pyruvate 500 μM, ASA 400 μM) was determined as 31 µM. The Emax in experiment [2] amounted to 74%.

For `COC(=O)CCCC(=O)NC(N)=O` [compound 12, Methyl-oxo-ureidopentanoate], the Emax in experiment [2] came out at 65%.

As for `NC(=O)SCCCCC(=O)O` [compound 13, 5-(Carbamoylthio)pentanoic acid], the Emax in experiment [2] was found to be 65%.

Regarding `CN(CCCC(N)=O)C(=O)C(=O)O` [compound 14, amino-oxobutyl-methyl-amino-oxoacetic acid], in experiment [2], the Emax was 44%.

Take `CCOC(=O)C(=O)N(C)CCCC(=O)OC` [compound 15, methyl-ethoxy-methyl-oxoacetamido-butanoate]: the Emax in experiment [2] stood at 42%.

With `NC(=O)NC(=O)CCCC(=O)O` [compound 16, oxo-ureidopentanoic acid], the Emax in experiment [2] worked out at 40%.

As for `CN(CCCC(N)=O)C(=O)C(N)=O` [compound 17, amino-oxobutyl-methyloxalamide], the Emax in experiment [2] is 40%.

On to `CN(CCCC(=O)O)C(=O)C(=O)O` [compound 18, carboxy-methylformamido-butanoic acid], for which the Emax in experiment [2] was found to be 39%.

On to `COC(=O)CCCN1C(=O)NC(=O)C1=O` [compound 19, methyl-trioxoimidazolidin -butanoate], for which the Emax in experiment [2] turned out to be 38%.

As to `CCOC(=O)C(=O)CCCCC(=O)O` [compound 20, Ethoxy-dioxoheptanoic acid], the Emax in experiment [2] came out at 35%.

Consider `COC(=O)CCCCC(=O)c1nn[nH]n1` [compound 21, methyl-oxo-tetrazol-hexanoate], for which, in experiment [2], the Emax was determined as 35%.

Turning to `COC(=O)c1ccc(C(=O)C(N)=O)cc1` [compound 22, Methyl-amino-oxoacetyl benzoate], in experiment [2], the Emax stood at 35%.

As for `O=C(O)c1ccc(C(O)C(=O)O)cc1` (centres unmarked) [compound 23, Carboxy-hydroxy-methyl benzoic acid], the Emax in experiment [2] worked out at 35%.

Consider `COC(=O)c1ccc(C(O)C(=O)O)cc1` (centres unmarked) [compound 24, Hydroxy-methoxycarbonyl pheny acetic acid], for which the Emax in experiment [2] worked out at 35%.

Regarding `CCOC(=O)C(=O)N(C)CCCC(N)=O` [compound 25, Ethyl-amino-oxobutyl-methyl-amino-oxoacetate], in experiment [2], the Emax worked out at 35%.

For the compound `NC(=O)C(=O)c1ccc(C(=O)O)cc1` [compound 26, amino-oxoacetyl-benzoic acid], in experiment [2], the Emax amounted to 34%.

With `CCOC(=O)CCCCSC(N)=O` [compound 27, ethyl-carbamoylthio-pentanoate], the Emax in experiment [2] stood at 34%.

Regarding `CCOC(=O)CCC[S+]([O-])CC(N)=O` (centres unmarked) [compound 28, Ethyl 4-((2-amino-2-oxoethyl)sulfinyl)butanoate], in experiment [2], the Emax came out at 31%.

On to `COC(=O)c1ccc(C(=O)C(=O)O)cc1` [compound 29, methoxycarbonyl-phenyl-oxoacetic acid], for which the Emax in experiment [2] is 29%.

`NC(=O)CS(=O)(=O)CCCC(=O)O` [compound 30, 4-((2-amino-2-oxoethyl)sulfonyl) butanoic acid]: in experiment [2], the Emax was found to be 29%.

For the compound `COC(=O)CCCCC(O)C(N)=O` (centres unmarked) [compound 31, Methyl 7-amino-6-hydroxy-7-oxoheptanoate], in experiment [2], the Emax was determined as 28%.

With `COC(=O)CCCCC(=O)C(N)=O` [compound 32, methyl 7-amino-6,7-dioxoheptanoate], in experiment [2], the Emax was 24%.

Regarding `O=C(O)C(=O)c1ccc(C(=O)O)cc1` [compound 33, carboxycarbonyl-benzoic acid], the Emax in experiment [2] worked out at 22%.

`CCOC(=O)CCCSCC(N)=O` [compound 34, Ethyl 4-((2-amino-2-oxoethyl)thio)butanoate]: the Emax in experiment [2] came out at 21%.

With `NC(=O)CCCCC(O)C(N)=O` (centres unmarked) [compound 35, 2-Hydroxyheptanediamide], in experiment [2], the Emax was determined as 21%.

Regarding `O=C(O)CCCN1C(=O)NC(=O)C1=O` [compound 36, 4-(2,4,5-Trioxoimidazolidin-1-yl) butanoic acid], the Emax in experiment [2] was found to be 21%.

In the case of `NC(=O)c1ccc(C(=O)C(=O)O)cc1` [compound 37, 2-(4-Carbamoylphenyl)-2-oxoacetic acid], the Emax in experiment [2] stood at 15%.

In the case of `NC(=O)CSCCCC(=O)O` [compound 38, 4-((2-Amino-2-oxoethyl)thio) butanoic acid], in experiment [2], the Emax was 15%.

As for `CCOC(=O)CCCS(=O)(=O)CC(N)=O` [compound 39, Ethyl 4-((2-amino-2-oxoethyl)sulfonyl)butanoate], in experiment [2], the Emax was 12%.

With `COC(=N)c1cccc(C(=N)OC)n1` [di-imidate of dimethyl pyridine-2,6-dicarboxylate], the IC50 with Escherichia coli DapA was 200 µM.

For the compound `O=CC(=O)O` [glyoxylate], the Ki in the experiment with Escherichia coli DapA is 16 µM.

With `Nc1ccc(C(=O)O)cc1` [p-amino benzoic acid], the “Inhibition of Mtb-rDapA (in words)” value in experiment [1] is “None of these showed inhibition”.

In the case of `CC(=O)C(=O)O` [pyruvate], the “Tm increase of Mtb-rDapA upon binding” value at Mtb-rDapA was determined as 2 °C.

For `CCC(=O)C(=O)O` [α-ketobutyrate], the Ki in the experiment with Escherichia coli DapA was 830 µM.

Regarding `CCCC(=O)C(=O)O` [α-ketovalerate], the Ki in the experiment on Escherichia coli DapA is 700 µM.
